Laboratory results as given in the NIST ThermoML archive (doi:10.1016/j.tca.2005.08.012).
Numbers after ± are expanded uncertainties.

Key:
[1] = xn = mol fraction of the nth substance listed; conditions: 101 kPa, Liquid, Vibrating tube method
[2] = 101.33 kPa, Liquid, Vibrating tube method

CCCCNCCCC [dibutylamine] + c1ccccc1
mass density [kg/m3], [1]
Conditions	x1 = 0.0108	x1 = 0.0201	x1 = 0.03	x1 = 0.039	x1 = 0.0487	x1 = 0.0593	x1 = 0.0689	x1 = 0.0797	x1 = 0.0892
303.15 K	865.75 ± 0.25	863.58 ± 0.25	861.33 ± 0.25	859.32 ± 0.25	857.18 ± 0.25	854.88 ± 0.26	852.86 ± 0.26	850.62 ± 0.26	848.69 ± 0.26
313.15 K	855.17 ± 0.25	853.13 ± 0.25	851 ± 0.25	849.09 ± 0.25	847.05 ± 0.25	844.85 ± 0.26	842.92 ± 0.26	840.79 ± 0.26	838.92 ± 0.26

CCCNCCC [dipropylamine]
[2]
Conditions	mass density [kg/m3]
303.15 K	731.21 ± 0.41
313.15 K	726.15 ± 0.41

CCCNCCC [dipropylamine] + C1CCCCC1
mass density [kg/m3], [1]
Conditions	x1 = 0.0114	x1 = 0.0213	x1 = 0.0321	x1 = 0.0414	x1 = 0.0509	x1 = 0.0622	x1 = 0.0727	x1 = 0.0811	x1 = 0.0919
303.15 K	768.31 ± 0.25	767.65 ± 0.25	766.94 ± 0.25	766.29 ± 0.26	765.71 ± 0.26	764.96 ± 0.26	764.29 ± 0.26	763.78 ± 0.26	763.13 ± 0.26
313.15 K	758.72 ± 0.25	758.03 ± 0.25	757.3 ± 0.26	756.67 ± 0.26	756.07 ± 0.26	755.34 ± 0.26	754.66 ± 0.26	754.17 ± 0.26	753.52 ± 0.27

CCCNCCC [dipropylamine] + c1ccccc1
mass density [kg/m3], [1]
Conditions	x1 = 0.0105	x1 = 0.0207	x1 = 0.0306	x1 = 0.039	x1 = 0.0508	x1 = 0.0614	x1 = 0.0723	x1 = 0.0812	x1 = 0.0917
303.15 K	865.97 ± 0.25	863.74 ± 0.25	861.67 ± 0.25	859.91 ± 0.25	857.5 ± 0.25	855.36 ± 0.26	853.17 ± 0.26	851.42 ± 0.26	849.36 ± 0.26
313.15 K	855.38 ± 0.25	853.26 ± 0.25	851.24 ± 0.25	849.55 ± 0.25	847.19 ± 0.25	845.11 ± 0.26	843 ± 0.26	841.29 ± 0.26	839.28 ± 0.26

CCCN [propan-1-amine]
[2]
Conditions	mass density [kg/m3]
303.15 K	706.1 ± 0.41
313.15 K	696.04 ± 0.4

CCCN [propan-1-amine] + C1CCCCC1
mass density [kg/m3], [1]
Conditions	x1 = 0.0076	x1 = 0.0169	x1 = 0.0282	x1 = 0.0365	x1 = 0.0483	x1 = 0.057	x1 = 0.0652	x1 = 0.0747	x1 = 0.0859
303.15 K	768.47 ± 0.25	767.75 ± 0.25	766.86 ± 0.25	766.22 ± 0.26	765.3 ± 0.26	764.61 ± 0.26	763.97 ± 0.26	763.25 ± 0.26	762.47 ± 0.26
313.15 K	758.92 ± 0.25	758.21 ± 0.25	757.38 ± 0.26	756.8 ± 0.26	755.92 ± 0.26	755.27 ± 0.26	754.68 ± 0.26	753.96 ± 0.26	753.15 ± 0.26
